One test has as its target human μOR (Homo sapiens, UniProt P35372). The test can be described thus: biochemical. Format: binding.
Another test concerns the target human κOR (Homo sapiens, UniProt P41145). Briefly: biochemical. Format: binding.
In the next test the target is human D3R (Homo sapiens, UniProt P35462). Briefly: Radioligand competition binding, human D3R. (Displacement assays read how much labelled ligand stays bound in the presence of the test substance.)
In a further test the target is human δOR (Homo sapiens, UniProt P41143). Briefly: biochemical. It counts as binding.
human δOR, sequence (P41143 whole entry): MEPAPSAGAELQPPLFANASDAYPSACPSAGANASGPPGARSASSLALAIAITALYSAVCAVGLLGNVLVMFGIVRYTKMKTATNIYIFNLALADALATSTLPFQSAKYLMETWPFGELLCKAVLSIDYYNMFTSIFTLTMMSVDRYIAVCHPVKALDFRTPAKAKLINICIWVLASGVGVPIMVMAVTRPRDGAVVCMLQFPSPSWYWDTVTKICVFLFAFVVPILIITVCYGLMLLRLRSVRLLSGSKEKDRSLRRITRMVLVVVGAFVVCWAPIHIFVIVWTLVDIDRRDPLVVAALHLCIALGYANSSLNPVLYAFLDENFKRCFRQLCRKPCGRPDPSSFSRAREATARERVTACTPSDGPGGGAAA

Broadly, the Ki is the dissociation constant of the complex between target and ligand, obtained from inhibition or displacement.

Like-named read-outs stand apart in the source and are kept apart here.

human μOR, sequence (P35372 whole entry): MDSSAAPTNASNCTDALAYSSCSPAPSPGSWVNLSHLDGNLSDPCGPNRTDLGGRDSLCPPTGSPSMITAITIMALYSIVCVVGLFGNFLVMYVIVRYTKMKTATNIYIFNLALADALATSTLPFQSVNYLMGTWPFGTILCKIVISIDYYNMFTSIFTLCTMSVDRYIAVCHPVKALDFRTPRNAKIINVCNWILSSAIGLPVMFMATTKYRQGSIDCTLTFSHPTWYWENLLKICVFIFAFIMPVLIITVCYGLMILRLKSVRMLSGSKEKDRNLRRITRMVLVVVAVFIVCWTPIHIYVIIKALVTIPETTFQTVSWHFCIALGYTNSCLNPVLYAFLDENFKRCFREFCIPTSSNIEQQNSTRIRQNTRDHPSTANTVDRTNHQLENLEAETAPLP
human κOR, sequence (P41145 whole entry): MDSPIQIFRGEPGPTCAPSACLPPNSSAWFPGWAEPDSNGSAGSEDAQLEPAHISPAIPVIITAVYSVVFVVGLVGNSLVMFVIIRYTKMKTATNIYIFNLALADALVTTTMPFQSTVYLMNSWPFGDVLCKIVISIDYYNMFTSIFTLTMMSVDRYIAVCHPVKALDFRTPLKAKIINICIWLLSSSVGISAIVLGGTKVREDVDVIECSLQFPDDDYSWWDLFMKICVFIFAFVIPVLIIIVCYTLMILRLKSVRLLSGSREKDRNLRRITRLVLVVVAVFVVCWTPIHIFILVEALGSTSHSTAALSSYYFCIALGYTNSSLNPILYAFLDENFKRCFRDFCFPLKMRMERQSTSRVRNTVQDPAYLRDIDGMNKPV
human D3R, sequence (P35462 whole entry): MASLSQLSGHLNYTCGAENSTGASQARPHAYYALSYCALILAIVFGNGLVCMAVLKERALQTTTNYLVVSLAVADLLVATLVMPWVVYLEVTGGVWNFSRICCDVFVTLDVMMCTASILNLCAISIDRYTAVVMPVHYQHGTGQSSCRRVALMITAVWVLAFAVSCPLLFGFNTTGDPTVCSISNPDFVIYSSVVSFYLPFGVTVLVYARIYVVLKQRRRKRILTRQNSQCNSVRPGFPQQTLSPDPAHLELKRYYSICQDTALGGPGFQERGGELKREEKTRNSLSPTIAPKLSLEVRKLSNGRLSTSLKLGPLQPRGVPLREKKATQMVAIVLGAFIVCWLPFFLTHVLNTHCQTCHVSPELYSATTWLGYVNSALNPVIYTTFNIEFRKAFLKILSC

Take “(E)-N-((1-(Dimethylamino)cyclohexyl)methyl)-2-(4-fluorobiphen-2-yl)diazene-1-carboxamide [4e]”: the values for the Ki at human μOR (read-out: Ki μOR) and at human κOR (read-out: Ki κOR) were 2.1 ± 0.57 µM and 4.8 ± 1.3 µM, respectively.
For the molecule `Cc1cc(F)ccc1/N=N/C(=O)NCC1(N(C)C)CCCCC1` [4b, (E)-N-((1-(Dimethylamino)cyclohexyl)methyl)-2-(4-fluoro-2-methylphenyl)diazene-1-carboxamide], the figures for the Ki on human μOR and on human κOR were 4.9 ± 0.35 µM and 6.1 ± 1.8 µM, respectively.
On to `CN(C)C1(CNC(=O)/N=N/c2ccc(F)cc2)CCCCC1` [4a, (E)-N-((1-(Dimethylamino)cyclohexyl)methyl)-2-(4-fluorophenyl)diazene-1-carboxamide], for which the Ki was 2.5 ± 1.1 µM on human μOR and 3.1 ± 0.78 µM at human κOR. In addition, the “selectivity between the κ and μ opioid receptor subtypes (in words)” value at human μOR is on record as “did not show any selectivity”.
On to “2-(4-Fluoro-2-methoxyphenyl)-N-(4-(4-(2-methoxyphenyl)piperazine-1-yl)but-1-yl)azocarboxamide [3d]”, for which the “affinity for the D3 receptor (in words)” value at human D3R was “single-digit”.
Regarding `COc1cc(F)ccc1/N=N/C(=O)NCC1(N(C)C)CCCCC1` [4d, (E)-N-((1-(Dimethylamino)cyclohexyl)methyl)-2-(4-fluoro-2-methoxyphenyl)diazene-1-carboxamide], the Ki was 38 ± 38 µM at human δOR, 7.4 ± 5.2 µM at human μOR and 7.2 ± 1.8 µM on human κOR. In addition, on human μOR, the “selectivity between the κ and μ opioid receptor subtypes (in words)” value was “did not show any selectivity”.
Regarding “2-(4-Fluorobiphen-2-yl)-N-(4-(4-(3-methoxyphenyl)piperazine-1-yl)but-1-yl)azocarboxamide [3e]”, the “affinity for the D3 receptor (in words)” value at human D3R is on record as “sub-nanomolar”. Also, on human D3R (ratio of Ki values), the “D3 selectivity over 5-HT1A, Ki(5-HT1A/D3)” value was 43. The “increase of D3 affinity compared to reference compound 3a” value on human D3R (vs ortho- and meta-unsubstituted 3a) was 10 fold.
For the molecule `Cc1cc(/N=N/C(=O)NCC2(N(C)C)CCCCC2)ccc1F` [4c, (E)-N-((1-(Dimethylamino)cyclohexyl)methyl)-2-(4-fluoro-3-methylphenyl)diazene-1-carboxamide], at human μOR, the Ki was 1.1 ± 0.35 µM, the “affinity for the μ-opioid receptor (in words)” value is recorded as “micromolar”, the “subtype selectivity Ki(δOR/μOR)” value was determined as 27 and the “subtype selectivity Ki(κOR/μOR)” value worked out at 4.4. The molecule further displayed a Ki on human κOR of 4.8 ± 1.8 µM.

For the origin of these results see publication PMC5819854 (ACS Omega, 2017).
